Results published in PMC3815892 (Microbial biotechnology, 2012).

Biological target: Ar‐BVMO (Acinetobacter radioresistens, UniProt D7PBN2)
Assay: HPLC product detection
Format: biochemical
Conditions: 500 uM substrate, 500 uM NADPH, 0.7 uM enzyme, 37 C, 20 min

CCc1cc(C(N)=S)ccn1 [ethionamide]
HPLC product detection (ethionamide S-oxide): confirmed the presence of ethionamide S‐oxide product
